{"source": "patent US20250197408A1", "about": "“CRYSTALLINE FORMS AND SALTS OF A PI3K INHIBITOR AND METHODS OF MAKING AND METHODS OF USE THEREOF” (Totus Medicines Inc., priority 2022, published 2025)", "key": {"PI3K": {"biological_target": "T1, PI3K (Homo sapiens, UniProt P42336)", "T1 construct": "expressed in transfected cells; host or cells: HEK293 (Gibco 293-H, #11631017), transient transfection with FuGENE HD", "T1 sequence (P42336 whole entry)": "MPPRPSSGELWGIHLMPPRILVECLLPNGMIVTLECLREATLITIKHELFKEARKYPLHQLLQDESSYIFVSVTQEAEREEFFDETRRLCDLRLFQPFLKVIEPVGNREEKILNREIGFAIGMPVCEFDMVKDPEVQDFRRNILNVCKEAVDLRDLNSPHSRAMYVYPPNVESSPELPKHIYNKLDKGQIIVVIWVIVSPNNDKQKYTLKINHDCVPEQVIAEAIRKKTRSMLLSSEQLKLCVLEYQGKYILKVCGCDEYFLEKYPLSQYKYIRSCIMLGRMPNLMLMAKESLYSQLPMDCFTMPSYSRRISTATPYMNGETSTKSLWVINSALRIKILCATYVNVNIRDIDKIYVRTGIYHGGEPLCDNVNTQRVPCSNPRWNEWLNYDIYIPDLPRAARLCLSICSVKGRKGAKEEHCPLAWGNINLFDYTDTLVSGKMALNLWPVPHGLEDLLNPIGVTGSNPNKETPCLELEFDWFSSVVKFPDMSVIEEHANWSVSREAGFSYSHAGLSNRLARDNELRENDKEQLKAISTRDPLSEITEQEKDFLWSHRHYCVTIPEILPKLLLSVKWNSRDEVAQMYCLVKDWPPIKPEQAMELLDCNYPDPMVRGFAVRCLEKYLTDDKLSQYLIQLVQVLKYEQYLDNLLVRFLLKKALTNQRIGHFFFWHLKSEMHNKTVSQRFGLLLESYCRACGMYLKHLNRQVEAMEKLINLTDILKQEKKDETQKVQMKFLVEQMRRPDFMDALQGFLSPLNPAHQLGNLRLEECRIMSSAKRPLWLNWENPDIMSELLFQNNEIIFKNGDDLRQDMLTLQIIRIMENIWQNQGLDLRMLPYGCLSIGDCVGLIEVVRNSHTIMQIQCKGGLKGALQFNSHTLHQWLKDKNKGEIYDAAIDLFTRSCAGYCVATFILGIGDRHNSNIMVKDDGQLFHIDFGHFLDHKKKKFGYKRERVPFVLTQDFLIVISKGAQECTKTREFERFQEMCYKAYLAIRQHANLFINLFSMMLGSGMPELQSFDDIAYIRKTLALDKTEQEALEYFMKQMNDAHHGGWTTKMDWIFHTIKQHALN", "T1 sequence (P27986 whole entry partner)": "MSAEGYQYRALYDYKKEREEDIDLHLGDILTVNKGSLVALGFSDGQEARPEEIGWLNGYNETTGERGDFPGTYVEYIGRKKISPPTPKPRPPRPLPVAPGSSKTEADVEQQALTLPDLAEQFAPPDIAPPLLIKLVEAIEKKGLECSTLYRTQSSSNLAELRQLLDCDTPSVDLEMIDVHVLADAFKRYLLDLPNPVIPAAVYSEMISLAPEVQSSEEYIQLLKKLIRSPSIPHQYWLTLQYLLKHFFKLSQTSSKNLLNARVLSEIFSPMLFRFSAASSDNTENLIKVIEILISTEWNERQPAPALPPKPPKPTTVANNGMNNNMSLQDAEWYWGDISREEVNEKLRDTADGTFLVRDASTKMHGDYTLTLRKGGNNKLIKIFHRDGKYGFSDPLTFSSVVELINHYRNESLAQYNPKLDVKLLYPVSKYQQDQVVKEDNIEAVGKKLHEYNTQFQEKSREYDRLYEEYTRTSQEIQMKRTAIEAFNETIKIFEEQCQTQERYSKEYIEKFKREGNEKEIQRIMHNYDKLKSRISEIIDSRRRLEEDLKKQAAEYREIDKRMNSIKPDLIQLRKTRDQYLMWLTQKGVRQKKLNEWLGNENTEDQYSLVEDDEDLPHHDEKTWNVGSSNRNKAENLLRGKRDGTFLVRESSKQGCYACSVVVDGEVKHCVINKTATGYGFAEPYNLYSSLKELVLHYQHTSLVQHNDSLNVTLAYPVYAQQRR", "experiment": "NanoBRET screening in transfected HEK293 cells (binding assay, with washout)", "conditions": "compound incubated overnight then washed", "experimental": "Human embryonic kidney 293-H (HEK 293, Gibco 293-H, #11631017) cell lines were maintained in Dulbecco's Modified Eagle Medium, high glucose, pyruvate (DMEM, Gibco, #11995065) supplemented with 10% fetal bovine serum (FBS, Gibco, #10082147) and 1× penicillin-streptomycin (100× solution, Gibco, #15140148) at 37° C. and 5% CO2 in a water-saturated incubator. Cell were trypsinized using 0.05% or 0.25% Trypsin-EDTA solution (Trypsin-EDTA, phenol red, Gibco, #25200056 (0.25%) or #25300054). Opti-MEM media supplemented with 10% fetal bovine serum (Opti-MEM I reduced serum media, no phenol red, Gibco, #11058021) was used for culturing cells overnight for NanoBRET readout experiments.\nHEK293 cells were cultivated appropriately prior to assay. The medium from cell flask was removed via aspiration, washed 1× with PBS followed by aspiration, trypsinized, and cells were allowed to dissociate from the flask. Trypsin was neutralized using growth medium and cells were pelleted via centrifugation at 200×g for 5 minutes. The medium was aspirated and the cells were resuspended into a single cell suspension using Opti-MEM I supplemented with 10% FBS. The cell density was adjusted to 2×10^5/mL in Opti-MEM I supplemented with 10% FBS in a sterile, conical tube. […]\nA 10 μg/mL solution of DNA was prepared in Opti-MEM without serum. […] The plate on plate reader is read every hour for the next 6 hours."}, "UM-UC-3 (bladder)": {"tested_on": "UM-UC-3 (bladder)", "experiment": "Cell proliferation assay (CellTiter-Glo, 3 days treatment), UM-UC-3", "assay_type": "cell-based", "conditions": "Homo sapiens, UMUC3, 72 h, read-out: Absolute IC50", "excerpt": "(§1) The cell lines tested included as follows: UM-UC-3 (bladder), KYSE-410 (HN/Esophagus), SW1463 (rectum), Calu-1 (Lung), NCI-H358 (Lung), SW837 (Rectum), SW756 (Cervix), NCI-H2122 (Lung), NCI-H1373 (Lung), NCI-H1792 (Lung), NCI-H23 (Lung), MIA PaCa-2 (Pancreas), and HC44.\n(§2) Cells were recovered and maintained in appropriate culture media. The cells were harvested respectively during the logarithmic growth period. The cells were then resuspended and counted using a Vi cell counter (The cell viability be measured by trypan blue exclusion assay.). The cells were then diluted and 90 μL cell suspensions were used in 96-well plates according to plate map with final cell density. Two duplicate plates were set up. One is for day 0 reading (TO) and the other was cultured in incubator for reading at the end point. The incubated plates were incubated overnight in humidified incubator at 37° C. with 5% CO2.\n(§3) At day 0, 10 μL culture medium to each well for TO reading. 10 μL of culture medium was added to each well for TO reading. Then, 50 μl CellTiter-Glo® Reagent was added to each well. […] Luminescence was then recorded using an EnVision Multi Label Reader. […]\n(§4) For the endpoint CTG reading, 50 μL of CellTiter-Glo® Reagent were added to each well. […] Luminescence was then recorded using an EnVision Multi Label Reader. IC50's were determined for each cell line."}, "KYSE-410 (HN/Esophagus)": {"tested_on": "KYSE-410 (HN/Esophagus)", "experiment": "Cell proliferation assay (CellTiter-Glo, 3 days treatment), KYSE-410", "assay_type": "cell-based", "conditions": "Homo sapiens, 72 h, read-out: Absolute IC50", "excerpt": "as §1, §2, §3, §4"}, "SW1463 (rectum)": {"tested_on": "SW1463 (rectum)", "experiment": "Cell proliferation assay (CellTiter-Glo, 3 days treatment), SW1463", "assay_type": "cell-based", "conditions": "Homo sapiens, 72 h, read-out: Absolute IC50", "excerpt": "as §1, §2, §3, §4"}, "Calu-1 (Lung)": {"tested_on": "Calu-1 (Lung)", "experiment": "Cell proliferation assay (CellTiter-Glo, 3 days treatment), Calu-1", "assay_type": "cell-based", "conditions": "Homo sapiens, 72 h, read-out: Absolute IC50", "excerpt": "as §1, §2, §3, §4"}, "NCI-H358 (Lung)": {"tested_on": "NCI-H358 (Lung)", "experiment": "Cell proliferation assay (CellTiter-Glo, 3 days treatment), NCI-H358", "assay_type": "cell-based", "excerpt": "as §1, §2\nAt day 0, 10 μL culture medium to each well for TO reading. Then, 50 μl CellTiter-Glo® Reagent was added to each well. The contents were then mixed for 2 minutes on an orbital shaker to facilitate cell lysis. The plates were then allowed to incubate at room temperature for 10 minutes to stabilize luminescent signal. Luminescence was then recorded using an EnVision Multi Label Reader. The test compound Compound I, and a control cisplatin, where then diluted at various concentrations from a 10 mM stock solution. Compound I was diluted and 10 μL of each 10× compound I from working solutions for a concentration ranging from 10 μM to about 0.005 μM. Cisplatin was diluted to about […] to about 150 nM. The screening plates were then placed back into the incubator for the appropriate treatment time (3 days).\nFor the endpoint CTG reading, 50 μL of CellTiter-Glo® Reagent were added to each well. The contents were then mixed for 2 minutes on an orbital shaker to facilitate cell lysis. […] Luminescence was then recorded using an EnVision Multi Label Reader. IC50's were determined for each cell line."}, "SW837 (Rectum)": {"tested_on": "SW837 (Rectum)", "experiment": "Cell proliferation assay (CellTiter-Glo, 3 days treatment), SW837", "assay_type": "cell-based", "conditions": "Homo sapiens, 72 h, read-out: Absolute IC50", "excerpt": "as §1, §2, §3, §4"}, "SW756 (Cervix)": {"tested_on": "SW756 (Cervix)", "experiment": "Cell proliferation assay (CellTiter-Glo, 3 days treatment), SW756", "assay_type": "cell-based", "conditions": "Homo sapiens, 72 h, read-out: Absolute IC50", "excerpt": "as §1, §2, §3, §4"}, "NCI-H2122 (Lung)": {"tested_on": "NCI-H2122 (Lung)", "experiment": "Cell proliferation assay (CellTiter-Glo, 3 days treatment), NCI-H2122", "assay_type": "cell-based", "conditions": "Homo sapiens, 72 h, read-out: Absolute IC50", "excerpt": "as §1, §2, §3, §4"}, "NCI-H1373 (Lung)": {"tested_on": "NCI-H1373 (Lung)", "experiment": "Cell proliferation assay (CellTiter-Glo, 3 days treatment), NCI-H1373", "assay_type": "cell-based", "conditions": "Homo sapiens, 72 h, read-out: Absolute IC50", "excerpt": "as §1, §2, §3, §4"}, "NCI-H1792 (Lung)": {"tested_on": "NCI-H1792 (Lung)", "experiment": "Cell proliferation assay (CellTiter-Glo, 3 days treatment), NCI-H1792", "assay_type": "cell-based", "conditions": "Homo sapiens, 72 h, read-out: Absolute IC50", "excerpt": "as §1, §2, §3, §4"}, "NCI-H23 (Lung)": {"tested_on": "NCI-H23 (Lung)", "experiment": "Cell proliferation assay (CellTiter-Glo, 3 days treatment), NCI-H23", "assay_type": "cell-based", "conditions": "Homo sapiens, 72 h, read-out: Absolute IC50", "excerpt": "as §1, §2, §3, §4"}, "MIA PaCa-2 (Pancreas)": {"tested_on": "MIA PaCa-2 (Pancreas)", "experiment": "Cell proliferation assay (CellTiter-Glo, 3 days treatment), MIA PaCa-2", "assay_type": "cell-based", "conditions": "Homo sapiens, 72 h, read-out: Absolute IC50", "excerpt": "as §1, §2, §3, §4"}, "HC44": {"tested_on": "HC44", "experiment": "Cell proliferation assay (CellTiter-Glo, 3 days treatment), HC44", "assay_type": "cell-based", "conditions": "Homo sapiens, 72 h, HCC44 (Lung), read-out: Absolute IC50", "excerpt": "as §1, §2, §3, §4"}}}
{"compound": "C=CC(=O)NCC(=O)N1CCN(Cc2cc3c(N4CCOCC4)nc(-c4cnc(NC(=O)OC)cc4C(F)(F)F)nn3c2)CC1", "note": "[Compound I, methyl (5-(6-((4-(acryloylglycyl)piperazin-1-yl)methyl)-4-morpholinopyrrolo[2,1-f][1,2,4]triazin-2-yl)-4-(trifluoromethyl)pyridin-2-yl) carbamate]", "values": [{"measurement": "inhibition of the PI3K target", "setting": "PI3K", "result": "greater than 80%"}, {"measurement": "IC50", "setting": "UM-UC-3 (bladder)", "result": "> 10", "unit": "µM"}, {"measurement": "IC50", "setting": "KYSE-410 (HN/Esophagus)", "result": 2.02, "unit": "µM"}, {"measurement": "IC50", "setting": "SW1463 (rectum)", "result": 3.86, "unit": "µM"}, {"measurement": "IC50", "setting": "Calu-1 (Lung)", "result": "> 10", "unit": "µM"}, {"measurement": "IC50", "setting": "NCI-H358 (Lung); Homo sapiens, 72 h, NCI-H358 (Lung), 3 days treatment, read-out: Absolute IC50", "result": 1.69, "unit": "µM"}, {"measurement": "inhibitory effect on cell proliferation", "setting": "NCI-H358 (Lung); NCI-H358, 3 days treatment, CellTiter-Glo", "result": "substantial inhibitory effect"}, {"measurement": "IC50", "setting": "SW837 (Rectum)", "result": "> 10", "unit": "µM"}, {"measurement": "IC50", "setting": "SW756 (Cervix)", "result": 7.29, "unit": "µM"}, {"measurement": "IC50", "setting": "NCI-H2122 (Lung)", "result": 3.77, "unit": "µM"}, {"measurement": "IC50", "setting": "NCI-H1373 (Lung)", "result": "> 10", "unit": "µM"}, {"measurement": "IC50", "setting": "NCI-H1792 (Lung)", "result": "> 10", "unit": "µM"}, {"measurement": "IC50", "setting": "NCI-H23 (Lung)", "result": "> 10", "unit": "µM"}, {"measurement": "IC50", "setting": "MIA PaCa-2 (Pancreas)", "result": "> 10", "unit": "µM"}, {"measurement": "IC50", "setting": "HC44", "result": 7.92, "unit": "µM"}]}
